# “And” between values parts separate entries of the source, which are not always exact repeats. Equal values may be shown once. Read-outs that look alike come from different tables or passages of the source.
# Tests used:
# [1] = In vivo PK after single p.o. and i.v. dosing in CD-1 mice; parameters: species or system female CD-1 mice; conditions: for AUC(0-t): read-out: AUC0–24
# Experimental: The Institutional Animal Care and Use Committee (IACUC) of the Novartis Institute for Tropical Diseases (NITD), registered with the Agri-Food and Veterinary authority (AVA), Government of Singapore, reviewed and approved all animal experimental protocols. […] The mice were allowed to acclimate before the initiation of the experiments. Feed and water were given ad libitum. […] The blood samples from the mice were collected at 0.02 (for i.v. only), 0.08, 0.25, 0.5, 1, 2, 4, 8, 16, and 24 h postdosing. The dose proportionality studies were conducted with KAE609. […] Additional samples were collected at 32 h and 48 h postdose for the 1- and 5-mg/kg dose groups and up to 72 h postdose for the 100-mg/kg dose group. Groups of three mice were used for each time point. Blood was centrifuged at 13,000 rpm for 7 min at 4°C, and plasma was harvested and stored at -20°C until analysis. […] After vortexing and centrifuging the mixture, the supernatant was removed and 5 μl of sample analyzed. Analyte quantitation was performed by high-performance liquid chromatography coupled with tandem mass spectrometry (LC-MS/MS). […] Instrument control and data acquisition were performed using the Applied Biosystems software Analyst 1.4.2. […] Multiple-reaction monitoring (MRM) was combined with optimized MS parameters to maximize detection specificity and sensitivity. The most intense MRM transitions [338.3/295.1 for (+)-1, 370.1/327.0 for (+)-2, 370.0/326.9 for (+)-3, 354.1/310.8 for (+)-4, 354.1/311.2 for (+)-5, 372.1/329.1 for (+)-6, 388.0/331.8 for (+)-7, 372.1/316.1 for (-)-6, and 388/332 for (-)-7] were used for quantitation. Most compounds were analyzed using electrospray ionization in the negative mode, except (+)-1, which was analyzed using positive mode. The recovery of the compounds from plasma was good and consistent across the concentration range studied. The lower limits of quantification for different compounds ranged from 1.3 to 70 ng/ml in plasma. A calibration curve was freshly prepared and analyzed with every set of study samples. Intraday variability was established with triplicate quality control samples at three concentration levels. The results were accepted if relative standard deviation was <15%. The mean values of the compound concentrations in plasma were obtained from three animals at each time point and plotted against time to generate concentration-time profiles. […] The oral bioavailability (F) was calculated as the ratio between the area under the concentration-time curve from 0 to infinity (AUC0-∞) following oral administration and the AUC0-∞ following intravenous administration corrected for dose (F = […].).
# [2] = tested on: P. berghei GFP ANKA PbGFPCON; assay: In vitro (ex vivo) P. berghei maturation assay; type: cell-based, Plasmodium berghei
# Experimental: For the in vitro (ex vivo) P. berghei maturation assays ([38]), heparinized blood from infected mice (P. berghei GFP ANKA malaria strain PbGFPCON, a donation from A. P. Waters and C. J. Janse, Leiden University, Leiden, the Netherlands) ([39]) was washed with 9 ml of hypoxanthine-free culture medium and diluted with hypoxanthine-free culture medium and red blood cells (RBCs) from uninfected mice to a hematocrit of 5% and a parasitemia of 0.3%. Serial compound dilutions were prepared in DMSO and distributed as described above. The infected erythrocytes (0.3% final parasitemia and 2.5% final hematocrit) were added into the wells. After the plates were incubated for 16 h, 0.25 μCi of [^3H]hypoxanthine was added per well, and the plates were incubated for an additional 8 h. The parasites were harvested, and the in vitro (ex vivo) P. berghei IC50, IC90, and IC99 values were determined as described above.
# [3] = Parallel artificial membrane permeability assay (PAMPA); type: in vitro ADME; conditions: % fraction absorbed
# Excerpt: (§1) page 5: Running title: PreclinicalPK -PD of antimalarials 73 to high through put form at using in- house standard assa y protocols that are described in the 74 literature. 75 (a)HT-Equilibrium solubilit y at pH 6.8( 1); (b)Parallel Artificial Membrane P ermeability Assa y 76 expressed in % fraction absorbed (FA) ( 2,3 ); (c)Apparent permeability from apical to […] 78 tested; (d)intrinsic clearance in mouse liver micro somes ex pressed as µ L/ min/mg protein, in 79 the presen ce of liver enzym es ( 6); (e)Mous e plasm a protein binding using rapid equilibrium […] 81 82 83 84 85 86 87 88 89 90 91 92 93 94 95 96 97 98 5
# [4] = Caco-2 permeability; type: in vitro ADME; conditions: human, Caco-2; apical to basolateral
# Excerpt: as §1
# [5] = tested on: P. vivax and P. falciparum; conditions: cited from earlier work
# [6] = oral 25 mg/kg vs i.v. 5 mg/kg, CD-1 mice
# [7] = single oral dose 25 mg/kg, CD-1 mice
# [8] = single oral dose 25 mg/kg, CD-1 mice, plasma
# [9] = 16 h + 8 h incubation, read-out: IC50 (mean ± SD) for P. berghei GFP ANKA PbGFPCON (n = 3)
# [10] = patients, 30 mg daily for 3 days
# [11] = oral 1.5–105 mg/kg, CD-1 mouse, power regression model
smiles,measurement,setting,value
C[C@H]1Cc2c([nH]c3ccc(Cl)cc23)[C@@]2(N1)C(=O)Nc1ccc(Cl)cc12 [(+)-2],CL,"[1]; i.v. 5 mg/kg, CD-1 mice",92.6 mL/min/kg
same,Vss,"[1]; i.v. 5 mg/kg, CD-1 mice",9.9 L/kg
same,t1/2 (i.v.),"[1]; i.v. 5 mg/kg, CD-1 mice",4.6 h
same,F (oral bioavailability),[1]; [6],62%
same,AUC0–24,[1]; [7],2900 ng·h/mL
same,Tmax,[1]; [7],1 h
same,t1/2 (oral),[1]; [7],4.3 h
same,Cmax,[1]; [8],600 ng/mL
same,IC50,[2]; [9],75 ± 32 nM
C[C@H]1Cc2c([nH]c3cc(Cl)ccc23)[C@@]2(N1)C(=O)Nc1ccc(Cl)cc12 [(+)-3],CL,"[1]; i.v. 5 mg/kg, CD-1 mice",60.1 mL/min/kg
same,Vss,"[1]; i.v. 5 mg/kg, CD-1 mice",13.7 L/kg
same,t1/2 (i.v.),"[1]; i.v. 5 mg/kg, CD-1 mice",4.3 h
same,F (oral bioavailability),[1]; [6],91%
same,AUC0–24,[1]; [7],5800 ng·h/mL
same,Tmax,[1]; [7],2 h
same,t1/2 (oral),[1]; [7],6.2 h
same,Cmax,[1]; [8],700 ng/mL
same,IC50,[2]; [9],140 ± 54 nM
C[C@H]1Cc2c([nH]c3ccc(F)cc23)[C@@]2(N1)C(=O)Nc1ccc(Cl)cc12 [(+)-4],PAMPA %FA,[3],97%
same,CL,"[1]; i.v. 5 mg/kg, CD-1 mice",24.0 mL/min/kg
same,Vss,"[1]; i.v. 5 mg/kg, CD-1 mice",1.9 L/kg
same,t1/2 (i.v.),"[1]; i.v. 5 mg/kg, CD-1 mice",4.7 h
same,F (oral bioavailability),[1]; [6],26%
same,AUC0–24,[1]; [7],3900 ng·h/mL
same,Tmax,[1]; [7],0.25 h
same,t1/2 (oral),[1]; [7],5.6 h
same,Cmax,[1]; [8],1000 ng/mL
same,IC50,[2]; [9],104 ± 53 nM
C[C@H]1Cc2c([nH]c3cc(F)ccc23)[C@@]2(N1)C(=O)Nc1ccc(Cl)cc12 [(+)-5],CL,"[1]; i.v. 5 mg/kg, CD-1 mice",11.8 mL/min/kg
same,Vss,"[1]; i.v. 5 mg/kg, CD-1 mice",1.6 L/kg
same,t1/2 (i.v.),"[1]; i.v. 5 mg/kg, CD-1 mice",3.8 h
same,F (oral bioavailability),[1]; [6],47%
same,AUC0–24,[1]; [7],17700 ng·h/mL
same,Tmax,[1]; [7],0.25 h
same,t1/2 (oral),[1]; [7],4.0 h
same,Cmax,[1]; [8],3100 ng/mL
same,IC50,[2]; [9],88 ± 26 nM
C[C@H]1Cc2c([nH]c3cc(F)c(F)cc23)[C@@]2(N1)C(=O)Nc1ccc(Cl)cc12 [(+)-6],CL,"[1]; i.v. 5 mg/kg, CD-1 mice",8.5 mL/min/kg
same,Vss,"[1]; i.v. 5 mg/kg, CD-1 mice",1.6 L/kg
same,t1/2 (i.v.),"[1]; i.v. 5 mg/kg, CD-1 mice",2.9 h
same,F (oral bioavailability),[1]; [6],53%
same,AUC0–24,[1]; [7],26800 ng·h/mL
same,Tmax,[1]; [7],2 h
same,t1/2 (oral),[1]; [7],3.2 h
same,Cmax,[1]; [8],3100 ng/mL
same,IC50,[2]; [9],7.5 ± 2.5 nM
C[C@H]1Cc2c([nH]c3cc(Cl)c(F)cc23)[C@@]2(N1)C(=O)Nc1ccc(Cl)cc12 [(+)-7 (KAE609)],Papp A→B,[4],1.69 ×10⁻⁶ cm/s
same,Clinical outcome,"[5]; 3-day dosing regimen of 30 mg daily, P. vivax and P. falciparum malaria patients",clearing parasitemia
same,AUC (average of two cohorts),[5]; [10],"14,300 ng · h/ml"
same,Cmax (average of two cohorts),[5]; [10],855 ng/mL
same,Vd,"[1]; female, mouse, plasma, iv, i.v. 5 mg/kg, CD-1 mice, read-out: Vss",2.1 L/kg
same,half-life,"[1]; female, mouse, plasma, iv, i.v. 5 mg/kg, CD-1 mice, read-out: t1/2 (i.v.) (converted)",3.4 h
same,AUC(0-t),"[1]; female, mouse, plasma, oral 1.5 mg/kg, CD-1 mice, HCl/Solutol HS15/citrate pH 3 formulation",1000 ng·h/mL
same,Cmax,"[1]; female, mouse, plasma, oral 1.5 mg/kg, CD-1 mice, HCl/Solutol HS15/citrate pH 3 formulation, read-out: Cmax",100 ng/mL
same,bioavailability,"[1]; female, mouse, plasma, oral 1.5 mg/kg, CD-1 mice, HCl/Solutol HS15/citrate pH 3 formulation, read-out: F",44%
same,Tmax,"[1]; female, mouse, plasma, oral 1.5 mg/kg, CD-1 mice, HCl/Solutol HS15/citrate pH 3 formulation, read-out: Tmax",1 h
same,half-life,"[1]; female, mouse, plasma, oral 1.5 mg/kg, CD-1 mice, HCl/Solutol HS15/citrate pH 3 formulation, read-out: t1/2 (oral) (converted)",8.7 h
same,AUC(0-t),"[1]; female, mouse, plasma, oral 5.6 mg/kg, CD-1 mice, HCl/Solutol HS15/citrate pH 3 formulation",2600 ng·h/mL
same,Cmax,"[1]; female, mouse, plasma, oral 5.6 mg/kg, CD-1 mice, HCl/Solutol HS15/citrate pH 3 formulation, read-out: Cmax",250 ng/mL
same,bioavailability,"[1]; female, mouse, plasma, oral 5.6 mg/kg, CD-1 mice, HCl/Solutol HS15/citrate pH 3 formulation, read-out: F",32%
same,Tmax,"[1]; female, mouse, plasma, oral 5.6 mg/kg, CD-1 mice, HCl/Solutol HS15/citrate pH 3 formulation, read-out: Tmax",2 h
same,half-life,"[1]; female, mouse, plasma, oral 5.6 mg/kg, CD-1 mice, HCl/Solutol HS15/citrate pH 3 formulation, read-out: t1/2 (oral) (converted)",7.5 h
same,bioavailability,"[1]; female, mouse, plasma, oral 25 mg/kg vs i.v. 5 mg/kg, CD-1 mice, read-out: F (oral bioavailability)",100%
same,AUC(0-t),"[1]; female, mouse, plasma, oral 105 mg/kg, CD-1 mice, HCl/Solutol HS15/citrate pH 3 formulation",187000 ng·h/mL
same,Cmax,"[1]; female, mouse, plasma, oral 105 mg/kg, CD-1 mice, HCl/Solutol HS15/citrate pH 3 formulation, read-out: Cmax",10800 ng/mL
same,bioavailability,"[1]; female, mouse, plasma, oral 105 mg/kg, CD-1 mice, HCl/Solutol HS15/citrate pH 3 formulation, read-out: F",100%
same,Tmax,"[1]; female, mouse, plasma, oral 105 mg/kg, CD-1 mice, HCl/Solutol HS15/citrate pH 3 formulation, read-out: Tmax",24 h
same,half-life,"[1]; female, mouse, plasma, oral 105 mg/kg, CD-1 mice, HCl/Solutol HS15/citrate pH 3 formulation, read-out: t1/2 (oral) (converted)",9.4 h
same,AUC(0-t),"[1]; female, mouse, plasma, single oral dose 25 mg/kg, CD-1 mice",43300 ng·h/mL
same,Tmax,"[1]; female, mouse, plasma, single oral dose 25 mg/kg, CD-1 mice, read-out: Tmax",1 h
same,half-life,"[1]; female, mouse, plasma, single oral dose 25 mg/kg, CD-1 mice, read-out: t1/2 (oral) (converted)",10 h
same,Cmax,"[1]; female, mouse, single oral dose 25 mg/kg, CD-1 mice, plasma, read-out: Cmax",3600 ng/mL
same,CL,"[1]; i.v. 5 mg/kg, CD-1 mice",9.7 mL/min/kg
same,Dose linearity,"[1]; oral 1.5–105 mg/kg, CD-1 mouse",nonlinear behavior
same,"Slope, log dose vs log AUC0-24 (dose proportionality)",[1]; [11],1.30
same,"Slope, log dose vs log Cmax (dose proportionality)",[1]; [11],1.18
same,"Threshold (TRE), 2× the P. berghei IC99",[2],123 nM and 48 ng/ml
same,IC50,"[2]; Plasmodium berghei, read-out: IC50 against P. berghei in vitro",0.01 µg/mL
same,IC50,"[2]; Plasmodium berghei, 16 h + 8 h incubation, read-out: IC50 (mean ± SD) for P. berghei GFP ANKA PbGFPCON (n = 3)",26 ± 14 nM
same,IC99 in the ex vivo P. berghei maturation assay,"[2]; four-parametric logistic fit, Bayesian hierarchical model",61.6 nM
C[C@@H]1Cc2c([nH]c3cc(F)c(F)cc23)[C@]2(N1)C(=O)Nc1ccc(Cl)cc12 [(−)-6],PAMPA %FA,[3],97%
same,CL,"[1]; i.v. 5 mg/kg, CD-1 mice",4.2 mL/min/kg
same,Vss,"[1]; i.v. 5 mg/kg, CD-1 mice",2.8 L/kg
same,t1/2 (i.v.),"[1]; i.v. 5 mg/kg, CD-1 mice",13.2 h
same,F (oral bioavailability),[1]; [6],78%
same,AUC0–24,[1]; [7],68200 ng·h/mL
same,Tmax,[1]; [7],2 h
same,t1/2 (oral),[1]; [7],7.9 h
same,Cmax,[1]; [8],5000 ng/mL
same,IC50,[2]; [9],2850 nM
C[C@@H]1Cc2c([nH]c3cc(Cl)c(F)cc23)[C@]2(N1)C(=O)Nc1ccc(Cl)cc12 [(−)-7],CL,"[1]; i.v. 5 mg/kg, CD-1 mice",2.6 mL/min/kg
same,Vss,"[1]; i.v. 5 mg/kg, CD-1 mice",1.3 L/kg
same,t1/2 (i.v.),"[1]; i.v. 5 mg/kg, CD-1 mice",5.6 h
same,F (oral bioavailability),[1]; [6],92%
same,AUC0–24,[1]; [7],107300 ng·h/mL
same,Tmax,[1]; [7],1 h
same,t1/2 (oral),[1]; [7],9.1 h
same,Cmax,[1]; [8],8300 ng/mL
same,IC50,[2]; [9],4910 nM

# — publication PMC4335872, “Pharmacokinetic-Pharmacodynamic Analysis of Spiroindolone Analogs and KAE609 in a Murine Malaria Model” (Antimicrobial Agents and Chemotherapy, 2015)
